This is an account of results in ChEMBL document CHEMBL4665768, “Monacycliones G-K and ent-Gephyromycin A, Angucycline Derivatives from the Marine-Derived Streptomyces sp. HDN15129” (J Nat Prod, 2020).

The subject of assay [1] is SH-SY5Y. The experiment in a line: Cytotoxicity against human SH-SY5Y cells assessed as reduction in cell viability by SRB assay. It counts as functional, cell-based.
Assay [2] has as its system HCT-116. The assay is described as follows: Cytotoxicity against human HCT-116 cells assessed as reduction in cell viability by SRB assay. It counts as functional, cell-based.
In assay [3] the test system is HL-60. The assay is described as follows: Cytotoxicity against human HL-60 cells assessed as reduction in cell viability by MTT assay. The assay is classed as functional, cell-based.
Assay [4] deals with K562. The assay is described as follows: Cytotoxicity against human K562 cells assessed as reduction in cell viability by MTT assay. The assay is classed as functional, cell-based.
The subject of assay [5] is PC-3. The experiment in a line: Cytotoxicity against human PC-3 cells assessed as reduction in cell viability by SRB assay. It counts as functional, cell-based.
For assay [6], the system named is ASPC1. The experiment in a line: Cytotoxicity against human ASPC1 cells assessed as reduction in cell viability by SRB assay. It counts as functional, cell-based.
In assay [7] the test system is Bel-7402. The assay is described as follows: Cytotoxicity against human Bel-7402 cells assessed as reduction in cell viability by SRB assay. It counts as functional, cell-based.
The test system of assay [8] is U-87 MG. The experiment in a line: Cytotoxicity against human U87 cells assessed as reduction in cell viability by SRB assay. It counts as functional, cell-based, U-87MG ATCC.

Where a name gives a salt, the structure may show the parent alone. Bounds are passed on as bounds.

With `CN[C@H]1CC[C@H](c2ccc3c(c2O)C(=O)c2cc(SC)c4cc(C)cc(O)c4c2C3=O)O[C@H]1C`, the IC50 in assay [1] is > 10 µM; in assay [2], > 10 µM; in assay [3] it was 7.6 µM; in assay [4], > 10 µM; in assay [5], > 10 µM; in assay [6], > 10 µM. Moreover, the concentration for half-maximal inhibition (IC50) in assay [7] and in assay [8] was > 10 µM throughout.
Consider `CSc1cc2c(c3c1C[C@@](C)(O)CC3=O)C(=O)c1ccc([C@H]3CC[C@H](N(C)C)[C@H](C)O3)c(O)c1C2=O`, for which the IC50 amounted to 4.3 µM in assay [1]; 10 µM in assay [2]; 3.5 µM in assay [3]; 7.1 µM in assay [4]; 7.7 µM in assay [5]; 7.1 µM in assay [6]. In addition, the results for the IC50 in assay [7] and in assay [8] were 10 µM and 7.9 µM, respectively.
In the case of `COc1cccc2c1C(=O)c1c(O)c3c(c(O)c1C2=O)C[C@@](O)(C(=O)CO)C[C@@H]3O[C@H]1C[C@H](N)[C@H](O)[C@H](C)O1` [DOXORUBICIN HYDROCHLORIDE], the half-maximal inhibitory concentration (IC50) is 0.5 µM in assay [1]; 0.2 µM in assay [5]; 0.2 µM in assay [6]; 0.3 µM in assay [7]; 0.2 µM in assay [8].
